Key:
[1] = test system: snake venom phosphodiesterase (Crotalus admanteus venom phosphodiesterase (CAVP))
[2] = test system: sense strand (5′-AAAAAAAAAA-3′; SEQ ID NO: 4); test: Melting temperature (Tm) test of antisense strand annealed with sense strand; details: duplex with sense strand 5′-AAAAAAAAAA-3′; UV absorption at 260 nm
Procedure: A mixture of 1 mL of the sense strand (0.5 OD/mL) and 1 mL of the antisense strand (0.5 OD/mL) was mixed and stirred evenly, heated at 90° C. for 10 min, and then cooled to room temperature. A Tm value of the sample was measured using an ultraviolet spectrophotometer (Agilent, Cary 3500 UV-Vis), the sample was placed in a cuvette with a cap and a temperature probe, a temperature was set to be raised from 20-25° C. to 70-80° C. at a rate of 0.5° C. or 1.0° C. per minute, and ultraviolet absorption at 260 nm was measured at an interval of 0.5° C.

For “5′-TTTTTTTTTT-3′ [Control antisense strand]”, the “degradation by nuclease (in words)” value [1] was “almost completely degraded” and the Tm [2] was 43 °C.

Source: patent US20250230146A1, “CARBOCYCLIC NUCLEOSIDE, OLIGONUCLEOTIDE AND PREPARATION METHODS THEREFOR AND MEDICAL USES THEREOF” (REDFIELD PHARMACEUTICAL INC., priority 2023, published 2025)
